Measurements published in PubChem BioAssay AID1745844 (Carcinogenic Potency Database (CPDB), 2022).
Several values for one entry are separate records, joined by “and”; a condition that tells them apart may be missing. Equal values may be shown once. Activity calls are given as the source filed them. The rule behind the calls is not given here.

System: rodent lifetime carcinogenesis bioassay, tumor incidence TD50
Assay: chronic cancer bioassays in animals – CPDB, compiled studies (AID 1745844)
[1] = mouse, strain Charles River CD1, females, in drinking water, site: all sites, lesion: all vascular tumors, dosed 52 weeks, study length 52 weeks
[2] = mouse, strain Charles River CD1, males, in drinking water, site: all sites, lesion: all vascular tumors, dosed 52 weeks, study length 52 weeks
[3] = mouse, strain Charles River CD1, males, in drinking water, site: liver, lesion: hepatocellular carcinoma, dosed 52 weeks, study length 52 weeks
[4] = mouse, strain Charles River CD1, males, in drinking water, site: liver, lesion: several types, types named in the paper, dosed 52 weeks, study length 52 weeks
[5] = mouse, strain Charles River CD1, males, in drinking water, site: lung, lesion: alveolar/bronchiolar adenoma, dosed 52 weeks, study length 52 weeks

CN(C)N
TD50 (hamster, strain Syrian Golden, females, in drinking water, site: blood vessels, lesion: several types, types named in the paper, dosed 79 weeks, study length 79 weeks): 620 mg/kg/day
TD50 (hamster, strain Syrian Golden, females, in drinking water, site: cecum, lesion: several types, types named in the paper, dosed 79 weeks, study length 79 weeks): 104 mg/kg/day
TD50 (hamster, strain Syrian Golden, females, in drinking water, site: liver, lesion: several types, types named in the paper, dosed 79 weeks, study length 79 weeks): 620 mg/kg/day
TD50 (hamster, strain Syrian Golden, males, in drinking water, site: blood vessels, lesion: several types, types named in the paper, dosed 91 weeks, study length 91 weeks): 183 mg/kg/day
TD50 (hamster, strain Syrian Golden, males, in drinking water, site: cecum, lesion: adenocarcinoma, dosed 91 weeks, study length 91 weeks): 322 mg/kg/day
TD50 (hamster, strain Syrian Golden, males, in drinking water, site: cecum, lesion: polypoid adenoma, dosed 91 weeks, study length 91 weeks): 372 mg/kg/day
TD50 (hamster, strain Syrian Golden, males, in drinking water, site: cecum, lesion: several types, types named in the paper, dosed 91 weeks, study length 91 weeks): 155 mg/kg/day
TD50 (hamster, strain Syrian Golden, males, in drinking water, site: liver, lesion: angioma, dosed 91 weeks, study length 91 weeks): 975 mg/kg/day
TD50 (hamster, strain Syrian Golden, males, in drinking water, site: liver, lesion: angiosarcoma, dosed 91 weeks, study length 91 weeks): 242 mg/kg/day
TD50 (hamster, strain Syrian Golden, males, in drinking water, site: liver, lesion: several types, types named in the paper, dosed 91 weeks, study length 91 weeks): 183 mg/kg/day
TD50 [1]: 26 mg/kg/day
carcinogen call [1]: negative (inactive)
TD50 (mouse, strain Charles River CD1, females, in drinking water, site: all sites, lesion: all vascular tumors, dosed 104 weeks, study length 104 weeks): 11.1 mg/kg/day
TD50 (mouse, strain Charles River CD1, females, in drinking water, site: all sites, lesion: hemangioma, dosed 52 weeks, study length 52 weeks): 39.7 mg/kg/day
TD50 (mouse, strain Charles River CD1, females, in drinking water, site: all sites, lesion: hemangiosarcoma, dosed 52 weeks, study length 52 weeks): 80.8 mg/kg/day
TD50 (mouse, strain Charles River CD1, females, in drinking water, site: liver, lesion: all vascular tumors, dosed 52 weeks, study length 52 weeks): 26 mg/kg/day
TD50 (mouse, strain Charles River CD1, females, in drinking water, site: liver, lesion: hemangioma, dosed 52 weeks, study length 52 weeks): 39.7 mg/kg/day
TD50 (mouse, strain Charles River CD1, females, in drinking water, site: liver, lesion: hemangiosarcoma, dosed 52 weeks, study length 52 weeks): 80.8 mg/kg/day
TD50 (mouse, strain Charles River CD1, females, in drinking water, site: liver, lesion: hepatocellular adenoma, dosed 104 weeks, study length 104 weeks): 98.7 mg/kg/day and 63.6 mg/kg/day
TD50 (mouse, strain Charles River CD1, females, in drinking water, site: liver, lesion: hepatocellular carcinoma, dosed 104 weeks, study length 104 weeks): 340 mg/kg/day
carcinogen call (mouse, strain Charles River CD1, females, in drinking water, site: liver, lesion: one or several types, types not named, dosed 52 weeks, study length 52 weeks): negative (inactive)
TD50 (mouse, strain Charles River CD1, females, in drinking water, site: liver, lesion: several types, types named in the paper, dosed 104 weeks, study length 104 weeks): 74.7 mg/kg/day
TD50 (mouse, strain Charles River CD1, females, in drinking water, site: lung, lesion: alveolar/bronchiolar carcinoma, dosed 52 weeks, study length 52 weeks): 81.5 mg/kg/day
TD50 (mouse, strain Charles River CD1, females, in drinking water, site: lung, lesion: several types, types named in the paper, dosed 52 weeks, study length 52 weeks): 3.68 mg/kg/day
TD50 [2]: 12.6 mg/kg/day
carcinogen call [2]: negative (inactive)
TD50 (mouse, strain Charles River CD1, males, in drinking water, site: all sites, lesion: all vascular tumors, dosed 104 weeks, study length 104 weeks): 6.13 mg/kg/day
TD50 (mouse, strain Charles River CD1, males, in drinking water, site: all sites, lesion: hemangioma, dosed 52 weeks, study length 52 weeks): 33.4 mg/kg/day
TD50 (mouse, strain Charles River CD1, males, in drinking water, site: all sites, lesion: hemangioma, dosed 104 weeks, study length 104 weeks): 339 mg/kg/day
TD50 (mouse, strain Charles River CD1, males, in drinking water, site: all sites, lesion: hemangiosarcoma, dosed 52 weeks, study length 52 weeks): 21.7 mg/kg/day
TD50 (mouse, strain Charles River CD1, males, in drinking water, site: liver, lesion: all vascular tumors, dosed 52 weeks, study length 52 weeks): 12.6 mg/kg/day
TD50 (mouse, strain Charles River CD1, males, in drinking water, site: liver, lesion: all vascular tumors, dosed 104 weeks, study length 104 weeks): 6.47 mg/kg/day
TD50 (mouse, strain Charles River CD1, males, in drinking water, site: liver, lesion: hemangioma, dosed 52 weeks, study length 52 weeks): 33.4 mg/kg/day
TD50 (mouse, strain Charles River CD1, males, in drinking water, site: liver, lesion: hemangioma, dosed 104 weeks, study length 104 weeks): 339 mg/kg/day
TD50 (mouse, strain Charles River CD1, males, in drinking water, site: liver, lesion: hemangiosarcoma, dosed 52 weeks, study length 52 weeks): 21.7 mg/kg/day
TD50 (mouse, strain Charles River CD1, males, in drinking water, site: liver, lesion: hepatocellular adenoma, dosed 52 weeks, study length 52 weeks): 26.7 mg/kg/day (inactive)
TD50 [3]: 10.8 mg/kg/day
carcinogen call [3]: negative (inactive)
TD50 (mouse, strain Charles River CD1, males, in drinking water, site: liver, lesion: hepatocellular carcinoma, dosed 104 weeks, study length 104 weeks): 11.9 mg/kg/day and 33.4 mg/kg/day
TD50 [4]: 6.28e+06 mg/kg/day
carcinogen call [4]: negative (inactive)
TD50 [5]: 5.18 mg/kg/day
carcinogen call [5]: negative (inactive)
TD50 (mouse, strain Charles River CD1, males, in drinking water, site: lung, lesion: alveolar/bronchiolar carcinoma, dosed 52 weeks, study length 52 weeks): 67.4 mg/kg/day
TD50 (mouse, strain Charles River CD1, males, in drinking water, site: lung, lesion: alveolar/bronchiolar carcinoma, dosed 104 weeks, study length 104 weeks): 89 mg/kg/day and 33.4 mg/kg/day
TD50 (mouse, strain Charles River CD1, males, in drinking water, site: lung, lesion: several types, types named in the paper, dosed 52 weeks, study length 52 weeks): 4.33 mg/kg/day
TD50 (mouse, strain Charles River CD1, males, in drinking water, site: lung, lesion: several types, types named in the paper, dosed 104 weeks, study length 104 weeks): 39.6 mg/kg/day and 26.4 mg/kg/day
TD50 (mouse, strain Swiss albino, females, in drinking water, site: blood vessels, lesion: angiosarcoma, dosed 72 weeks, study length 72 weeks): 3.57 mg/kg/day
TD50 (mouse, strain Swiss albino, females, in drinking water, site: blood vessels, lesion: several types, types named in the paper, dosed 72 weeks, study length 72 weeks): 3.65 mg/kg/day
TD50 (mouse, strain Swiss albino, females, in drinking water, site: kidney, lesion: adenoma, dosed 72 weeks, study length 72 weeks): 148 mg/kg/day
TD50 (mouse, strain Swiss albino, females, in drinking water, site: lung, lesion: adenocarcinoma, dosed 72 weeks, study length 72 weeks): 51.6 mg/kg/day
TD50 (mouse, strain Swiss albino, females, in drinking water, site: lung, lesion: adenoma, dosed 72 weeks, study length 72 weeks): 5.58 mg/kg/day
TD50 (mouse, strain Swiss albino, females, in drinking water, site: lung, lesion: several types, types named in the paper, dosed 72 weeks, study length 72 weeks): 5.69 mg/kg/day
TD50 (mouse, strain Swiss albino, males, in drinking water, site: blood vessels, lesion: angiosarcoma, dosed 62 weeks, study length 62 weeks): 2.09 mg/kg/day
TD50 (mouse, strain Swiss albino, males, in drinking water, site: blood vessels, lesion: several types, types named in the paper, dosed 62 weeks, study length 62 weeks): 2.11 mg/kg/day
TD50 (mouse, strain Swiss albino, males, in drinking water, site: kidney, lesion: adenoma, dosed 62 weeks, study length 62 weeks): 19.5 mg/kg/day
TD50 (mouse, strain Swiss albino, males, in drinking water, site: liver, lesion: hepatoma, dosed 62 weeks, study length 62 weeks): 30.4 mg/kg/day
TD50 (mouse, strain Swiss albino, males, in drinking water, site: lung, lesion: adenocarcinoma, dosed 62 weeks, study length 62 weeks): 46.6 mg/kg/day
TD50 (mouse, strain Swiss albino, males, in drinking water, site: lung, lesion: adenoma, dosed 62 weeks, study length 62 weeks): 2.62 mg/kg/day
TD50 (mouse, strain Swiss albino, males, in drinking water, site: lung, lesion: several types, types named in the paper, dosed 62 weeks, study length 62 weeks): 2.62 mg/kg/day
TD50 (mouse, strain Swiss, females, by gavage, site: lung, lesion: one or several types, types not named, dosed 40 weeks, study length 55 weeks): 16 mg/kg/day
carcinogen call (rat, strain Fischer 344, females, in drinking water, site: liver, lesion: hemangioma, dosed 52 weeks, study length 52 weeks): negative (inactive)
TD50 (rat, strain Fischer 344, females, in drinking water, site: liver, lesion: hepatocellular adenoma, dosed 104 weeks, study length 104 weeks): 184 mg/kg/day (inactive)
TD50 (rat, strain Fischer 344, females, in drinking water, site: liver, lesion: hepatocellular carcinoma, dosed 104 weeks, study length 104 weeks): 40.7 mg/kg/day (inactive)
TD50 (rat, strain Fischer 344, females, in drinking water, site: liver, lesion: several types, types named in the paper, dosed 104 weeks, study length 104 weeks): 30.9 mg/kg/day (inactive)
TD50 (rat, strain Fischer 344, females, in drinking water, site: pituitary gland, lesion: adenoma, dosed 104 weeks, study length 104 weeks): 14.8 mg/kg/day (inactive)
TD50 (rat, strain Fischer 344, males, in drinking water, site: liver, lesion: hepatocellular adenoma, dosed 104 weeks, study length 104 weeks): 205 mg/kg/day (inactive)
TD50 (rat, strain Fischer 344, males, in drinking water, site: liver, lesion: hepatocellular carcinoma, dosed 104 weeks, study length 104 weeks): 650 mg/kg/day (inactive)
carcinogen call (rat, strain Fischer 344, males, in drinking water, site: liver, lesion: one or several types, types not named, dosed 52 weeks, study length 52 weeks): negative (inactive)
TD50 (rat, strain Fischer 344, males, in drinking water, site: liver, lesion: several types, types named in the paper, dosed 104 weeks, study length 104 weeks): 155 mg/kg/day (inactive)
